Converted amounts (≈) assume the structure as drawn.
conditions: buffer; pH 7.4; 200.0 µM

Row | solubility kinetic | SMILES
1 | > 44.6 µg/mL | CC(=O)NC(CC(=O)NCc1ccncc1)c1ccccc1 (stereo not drawn)
2 | > 59.6 µg/mL | CCN(CC(=O)NCc1cccs1)C(=O)c1cc(Br)ccc1O
3 | > 30.9 µg/mL | NC(=S)Nc1ccc(F)c(F)c1F
4 | 46.4 µg/mL (≈ 132 µM) | COc1ccc(OC)c(/C=C/C(=O)NCCc2nc3ccccc3[nH]2)c1
5 | 1.5 µg/mL (≈ 5.2 µM) | O=C(Nc1nccs1)c1ccc(-c2ccc(F)cc2)o1
6 | 23.4 µg/mL (≈ 113 µM) | Cc1ccc(N=C2CSC(=O)N2)cc1
7 | 26.7 µg/mL (≈ 81.7 µM) | Cc1nc2ccccc2c2c1CC(C(C)(Cl)Br)O2 (stereo not drawn)
8 | 0.3 µg/mL (≈ 0.95 µM) | O=C(Nc1cccnc1Cl)c1cc(-c2cccc(O)c2)on1
9 | 12.7 µg/mL (≈ 33.2 µM) | CNS(=O)(=O)c1cccc(C(=O)OCC(=O)NC2CCCC(C)C2C)c1 (stereo not drawn)
10 | 1.8 µg/mL (≈ 5.51 µM) | CNc1nc(-c2ccc(OC)cc2)c(-c2ccc(OC)cc2)s1
11 | > 46 µg/mL | N#CCCN(Cc1ccccc1)S(=O)(=O)c1cccs1
12 | 13.8 µg/mL (≈ 38.7 µM) | CCOC(=O)/C=C/C(=O)OCC(=O)Nc1cccc(Br)c1
13 | 5.1 µg/mL (≈ 17 µM) | O=C(OCc1c(F)cccc1Cl)c1cccnc1Cl
14 | > 39.8 µg/mL | COc1ccc(CNc2ncnc3ccccc23)cc1
15 | 3.6 µg/mL (≈ 11.8 µM) | O=C(CSc1cc(Cl)ccc1Cl)NC1CCCC1
16 | 48.6 µg/mL (≈ 146 µM) | Cc1ccc(CC(CC(=O)O)C(=O)Nc2ccc(Cl)cc2)cc1 (stereo not drawn)
17 | 44.7 µg/mL (≈ 147 µM) | CCOC(=O)c1cnc(COc2ccc(OC)cc2)[nH]c1=O
18 | < 0.2 µg/mL | O=[N+]([O-])c1ccccc1Nc1c2ccccc2nc2ccccc12
19 | > 46.6 µg/mL | CN(Cc1ccc(Cl)cc1)C(=O)c1ccc2ccccc2n1
20 | > 42.5 µg/mL | Cc1ccc(NC(=O)CN(C)C(=O)c2ccccn2)cc1
21 | > 42.8 µg/mL | CC1Cc2ccccc2N1C(=O)CSc1ncccn1 (stereo not drawn)
22 | 23.8 µg/mL (≈ 51.9 µM) | C=CCN(Cc1ccc(Cl)s1)C(=O)c1ccc(F)c(S(=O)(=O)N2CCOCC2)c1
23 | > 45 µg/mL | Cn1nccc1NC(=O)Nc1ccc(OC(F)(F)F)cc1

Row | solubility kinetic | SMILES
24 | > 40.9 µg/mL | CC(C)CC(=O)Nc1cc2c3c(c1)CCN3C(=O)CC2
25 | > 51.1 µg/mL | Cl.O=C(CN1CCCC1)N1c2ccccc2C=Cc2ccccc21
26 | > 60.2 µg/mL | Cc1nc(Cc2nnc(SCC(=O)N3CC(=O)Nc4ccccc43)o2)cs1
27 | > 37.3 µg/mL | NC(=O)c1cccnc1Oc1ccc(Cl)cc1
28 | > 54.2 µg/mL | CCOc1cc(/C=C\c2nc(O)c([N+](=O)[O-])c(=O)[nH]2)ccc1OC(C)C
29 | 20.8 µg/mL (≈ 83.4 µM) | Cc1ccc2cccc(OCc3ccccc3)c2n1
30 | 15.9 µg/mL (≈ 45.8 µM) | Cc1ccc(OCCC(=O)OCC(=O)NC2CCCC(C)C2C)cc1 (stereo not drawn)
31 | 9.6 µg/mL (≈ 28 µM) | CS(=O)(=O)Cc1ccc(C(=O)NC2CCCc3ccccc32)cc1 (stereo not drawn)
32 | 0.7 µg/mL | Cl.Oc1cccc(Nc2c3ccccc3nc3ccccc23)c1
33 | > 47.6 µg/mL | CC1CCN(C(=O)CSc2nc3ccccc3c(=O)[nH]2)CC1
34 | 0.6 µg/mL (≈ 2.02 µM) | O=C(Cc1ccc([N+](=O)[O-])cc1)Nc1ccc2c(c1)CCC2
35 | 1.3 µg/mL (≈ 3.98 µM) | Cc1onc(-c2ccccc2)c1C(=O)NCc1ccc(Cl)cc1
36 | 2.3 µg/mL (≈ 7.84 µM) | CCCn1c(=N)c(C#N)cc2c(=O)n3cccc(C)c3nc21
37 | 22.4 µg/mL (≈ 84.1 µM) | O=C(O)Cn1c(Cc2ccccc2)nc2ccccc21
38 | 28.9 µg/mL (≈ 102 µM) | N#Cc1ccccc1NC(=S)NC(=O)c1cccnc1
39 | > 59 µg/mL | Cc1cccc(N2CC(C(=O)Nc3ccc(N4CCOCC4)cc3)CC2=O)c1C (stereo not drawn)
40 | 3.3 µg/mL (≈ 6.36 µM) | Cc1ccc(S(=O)(=O)N2CCN(C(=O)CN3C(=O)NC(C)(c4ccc(Cl)cc4)C3=O)CC2)c(C)c1 (stereo not drawn)
41 | 2.7 µg/mL (≈ 8.62 µM) | COC(=O)c1[nH]c2c(c1C)C(=O)CC(c1ccc(OC)cc1)C2 (stereo not drawn)
42 | 13.9 µg/mL (≈ 42.7 µM) | CCCCS(=O)(=O)N1CCCC(C(=O)Oc2ccccc2)C1 (stereo not drawn)
43 | 2.8 µg/mL (≈ 8.95 µM) | O=Cc1c(NCc2ccc(Cl)cc2)c2ccccc2[nH]c1=O
44 | 12.8 µg/mL (≈ 39.7 µM) | Cc1cccc(NC(=O)c2ccc(-c3ccccc3[N+](=O)[O-])o2)c1
45 | 3.2 µg/mL (≈ 14.1 µM) | ClCc1nc2ccccc2c2ccccc12
46 | 15.2 µg/mL (≈ 45.6 µM) | CC(=O)c1ccc(NC(=O)COC(=O)c2ccc(F)cc2F)cc1

Row | solubility kinetic | SMILES
47 | 26.8 µg/mL (≈ 82.9 µM) | CCCc1ccc2oc(C(=O)N(C)Cc3cnccn3)c(C)c2c1
48 | 5 µg/mL (≈ 18.9 µM) | Cc1ccc(NCc2ccc(O)c3ncccc23)cc1
49 | 3.3 µg/mL (≈ 10.7 µM) | Fc1ccccc1CNC(=S)NCc1ccc(Cl)cc1
50 | > 39.2 µg/mL | CNC(=O)C(=O)Nc1c(O)c2ccccc2[nH]c1=O
51 | 14.3 µg/mL (≈ 45.6 µM) | Cc1ccc(CNC(=O)CCSCc2ccc(C)cc2)cc1
52 | 0.8 µg/mL (≈ 2.97 µM) | Oc1ccc(Nc2nc(-c3cccnc3)cs2)cc1
53 | > 36.2 µg/mL | O=C(N/N=C/c1ccccc1O)c1ccncc1
54 | > 50.3 µg/mL | O=C(O)c1cc([N+](=O)[O-])c(NCCC2=CCCCC2)c([N+](=O)[O-])c1
55 | 26.5 µg/mL (≈ 117 µM) | CC(NC(=O)c1ccncc1)c1ccccc1 (stereo not drawn)
56 | 33.8 µg/mL (≈ 111 µM) | CC1CCCC(NC(=O)CCC(=O)c2ccc(F)cc2)C1C (stereo not drawn)
57 | > 58 µg/mL | Cc1cccc(C)c1NC(=O)COC(=O)[C@@H]1CCCN1C(=O)c1cccs1
58 | 2.6 µg/mL (≈ 6.8 µM) | COc1ccc(-c2nc(N)nc(C(F)(F)F)c2-c2csc(C)n2)c(O)c1
59 | 0.3 µg/mL (≈ 0.849 µM) | Cc1cccc(NC(=O)CCCn2c(=S)[nH]c3ccccc3c2=O)c1
60 | > 50.6 µg/mL | CC(=O)NCCc1nc2ccccc2n1CCOc1ccc(C)cc1
61 | > 46.4 µg/mL | O=S(=O)(NCc1ccc2c(c1)OCO2)c1ccc(F)cc1
62 | < 0.4 µg/mL | COc1ccc(OCC(O)CNC(=O)Nc2ccc(C(C)(C)C)cc2)cc1 (stereo not drawn)
63 | > 48.5 µg/mL | Cc1cccc(C(=O)NCC(=O)N2CC(=O)Nc3ccccc32)c1
64 | > 57.5 µg/mL | O=C(O)Cc1ccc2c(c1)N(S(=O)(=O)c1cccs1)CC(C(=O)O)O2 (stereo not drawn)
65 | > 44.5 µg/mL | NC(=O)c1cc(S(=O)(=O)NCc2ccccc2)cs1
66 | > 40 µg/mL | Cc1noc(C)c1COC(=O)c1cccnc1Cl
67 | 22.5 µg/mL (≈ 69.2 µM) | O=C(CN1CCN(c2ccc([N+](=O)[O-])cc2)CC1)c1ccccc1
68 | > 50.3 µg/mL | CC(C(=O)c1ccccc1)[n+]1cccc(C(N)=O)c1.[Br-] (stereo not drawn)
69 | 24.1 µg/mL (≈ 140 µM) | CCc1c(C)nc(N)nc1Cl

Row | solubility kinetic | SMILES
70 | 3.1 µg/mL (≈ 9.27 µM) | COc1ccccc1-c1cc(C(=O)N2CCCc3ccccc32)no1
71 | 1.9 µg/mL (≈ 5.77 µM) | N#Cc1ccc(S(=O)(=O)N2CCN(c3ncccn3)CC2)cc1
72 | > 38.6 µg/mL | Cc1ccc(CC(=O)NCCCn2ccnc2)cc1
73 | 14 µg/mL (≈ 43 µM) | CN(Cc1ccccc1F)C(=O)c1sccc1-c1ccccc1
74 | 45 µg/mL (≈ 137 µM) | CN(C(=O)COC(=O)Cn1cnc2ccccc21)C1CCCCC1
75 | 2.4 µg/mL (≈ 11.5 µM) | Nc1cccc2cc(-c3ccccc3)oc12
76 | > 41.2 µg/mL | O=C1CN(S(=O)(=O)c2ccccc2Cl)CCN1
77 | > 54.7 µg/mL | CCc1ccccc1NC(=O)[C@@H]1CCC(=O)N1C1OC(=O)c2ccccc21 (stereo partly drawn)
78 | 17.8 µg/mL (≈ 45.9 µM) | CN(CC(=O)Nc1cccc(S(=O)(=O)N2CCCC2)c1)Cc1ccccc1
79 | > 46.5 µg/mL | COC(=O)c1ccccc1NS(=O)(=O)c1c(C)noc1C
80 | 4.8 µg/mL (≈ 11.4 µM) | CCN(C(=O)COC(=O)/C(C#N)=C/c1ccc(N(C)C)cc1)C1CCS(=O)(=O)C1 (stereo not drawn)
81 | > 50.8 µg/mL | COc1ccc(CNC(=O)Cc2cn(C)c3ccccc23)c(OC)c1
82 | 2.3 µg/mL (≈ 7.36 µM) | CCC(=O)Nc1ccc(OCc2nc3ccccc3s2)cc1
83 | 38.7 µg/mL (≈ 125 µM) | CC(=O)N1CCN(CC(c2ccccc2)c2ccccc2)CC1
84 | 8.3 µg/mL (≈ 28 µM) | CCc1ccc(S(=O)(=O)Nc2ccc(Cl)cn2)cc1
85 | > 58.3 µg/mL | CN(C)CCOC(C)(c1ccccc1)c1ccccn1.O=C(O)CCC(=O)O (stereo not drawn)
86 | > 41.7 µg/mL | Cn1cccc1C(=O)OCC(=O)NCc1cccs1
87 | 4.5 µg/mL (≈ 12.1 µM) | COc1ccc(C(=O)C2CCN(CC(=O)Nc3ccccc3F)CC2)cc1
88 | > 57 µg/mL | CN(CC(=O)Nc1ccc(F)c(F)c1F)C(=O)C1COc2ccccc2O1 (stereo not drawn)
89 | < 0.3 µg/mL | COC(=O)Nc1nc(-c2cc(Cl)ccc2Cl)cs1
90 | 44 µg/mL (≈ 139 µM) | C=C(C)c1cccc(C(C)(C)NC(=O)NCCN(CC)CC)c1
91 | 39.4 µg/mL (≈ 150 µM) | Cc1nc2ccc(-c3nc4ccc(N)cc4[nH]3)cc2[nH]1
92 | 21.1 µg/mL (≈ 67.5 µM) | CC(=O)Nc1ccc(NC(=O)CCOc2ccccc2C)cc1

Row | solubility kinetic | SMILES
93 | 1.4 µg/mL (≈ 4.23 µM) | O=C(Nc1c(-c2ccccc2)nc2ccccn12)c1cccc(F)c1
94 | 17.3 µg/mL (≈ 41.1 µM) | CCN(CC)S(=O)(=O)c1ccc(/C=C/C(=O)OCC(=O)NCc2ccco2)cc1
95 | > 45.7 µg/mL | CCN(CC)c1ccc(C(=O)OCC(=O)N2CCCC2)cc1
96 | 51.6 µg/mL (≈ 137 µM) | COc1ccc(-c2cc(C(=O)N3CCCCC3)c3ccccc3n2)cc1OC
97 | < 0.2 µg/mL | c1cncc(-c2noc(-c3ccc4ccccc4c3)n2)c1
98 | < 0.4 µg/mL | CC(C)COc1ccc(CNC(=S)Nc2ccccc2)cc1Cl
99 | > 73.9 µg/mL | NS(=O)(=O)c1ccc(CCNC(=O)CN2C(=O)NC(c3ccccc3)(c3ccccc3)C2=O)cc1
100 | 10.8 µg/mL (≈ 34.4 µM) | COc1ccc(NC(=O)c2ccc3c(c2)NC(=O)CS3)cc1
101 | > 46.1 µg/mL | CC(O)Cn1c(N2CCCC2)nc2c1c(=O)n(C)c(=O)n2C (stereo not drawn)
102 | 9.5 µg/mL (≈ 20 µM) | CCN(C(=O)CSc1nc2ccccc2c(=O)n1-c1ccccc1F)C1CCS(=O)(=O)C1 (stereo not drawn)
103 | 1.9 µg/mL (≈ 5.72 µM) | O=C(Nc1csc([N+](=O)[O-])c1)Nc1c(Cl)cccc1Cl
104 | > 30 µg/mL | CCSc1nc(O)cc(=O)n1CC
105 | > 57.7 µg/mL | CC(=O)N(C)Cc1ccc(C(=O)CSc2nnc(C3CC3)n2C2CC2)cc1
106 | > 29.4 µg/mL | Cc1[nH]c(=O)[nH]c(=O)c1/C=C/C(=O)O
107 | > 53.2 µg/mL | Cc1cc(C)cc(C(=O)N(C)C2CCCN(Cc3ccccc3F)C2)c1 (stereo not drawn)
108 | > 40.1 µg/mL | COc1ccc(NC(=O)c2ccc3nc[nH]c3c2)cc1
109 | 36.9 µg/mL (≈ 149 µM) | CC1CCN(C(=O)c2ccc3c(c2)OCO3)CC1
110 | 45.2 µg/mL (≈ 128 µM) | COC(=O)c1sc(C(C)(C)C)cc1CS(=O)(=O)c1ccccn1
111 | 50.1 µg/mL | CCN(CC)c1nc(N2CCN(C)CC2)nc2ccccc12.Cl
112 | 43.8 µg/mL (≈ 144 µM) | COc1ccc(/C=C/C(=O)NCCCN2CCOCC2)cc1
113 | 11.4 µg/mL (≈ 45.5 µM) | Oc1ccccc1-c1cncn1Cc1ccccc1
114 | 2.2 µg/mL (≈ 8.26 µM) | COC(=O)Nc1nc(-c2ccc(F)cc2)c(C)s1
115 | 8.5 µg/mL (≈ 33.2 µM) | Cc1ccc([N+](=O)[O-])cc1NC(=O)c1ccccc1

Row | SMILES | solubility kinetic
116 | O=[N+]([O-])c1ccc(N2CCNCC2)cc1N1CCCCC1 | > 43.6 µg/mL
117 | COc1ccc(-n2c(CN3CCOCC3)nc3ccccc3c2=O)c(OC)c1 | > 57.2 µg/mL
118 | CCN(CC)C(=O)c1ccc(NC(=O)c2c(C)noc2C)cc1 | > 47.3 µg/mL

— PubChem BioAssay AID1996
